These results are taken from the SangsterLogP compilation.

The series is described as follows: method code SF-AS, from Bernabe, T.; Forni, F.; Bellei, S.; Cameroni, R. (1980). Partition coefficients of a series of substituted benzoic acids. Atti Soc. Nat. Mat Modena, 111(1)63-72. The settings on record: pH 1.0.
Consider `Cc1cccc(C(=O)O)c1O`, for which the logD is 2.86.
Then `O=C(O)c1cc([N+](=O)[O-])c(Cl)c([N+](=O)[O-])c1`, with 2.5; and `O=C(O)c1ccc([N+](=O)[O-])c(O)c1`, with 1.98.
In turn, `O=C(O)c1cc(Cl)ccc1[N+](=O)[O-]` registered a logD of 2.13. The logD values of the last two compounds are within 0.2 log units of each other.
The compound `COc1cccc(C(=O)O)c1O` yielded a logD of 1.94.
Turning to `O=C(O)c1ccc(O)c([N+](=O)[O-])c1`, the logD stood at 1.85. The logD values of the last two compounds are within 0.2 log units of each other.
As to `O=C(O)c1ccc(Cl)cc1[N+](=O)[O-]`, the logD was 2.08.
`Nc1cc([N+](=O)[O-])ccc1C(=O)O`: the logD amounted to 1.91. The logD values of the last two compounds are within 0.2 log units of each other.
As for `O=C(O)c1cc([N+](=O)[O-])cc([N+](=O)[O-])c1O`, the logD stood at 1.71.
`COc1cc(OC)cc(C(=O)O)c1`: the log distribution coefficient (logD) stood at 2.19.
With `Nc1c(Cl)cc(Cl)cc1C(=O)O`, the logD came to 1.82.
For the compound `COc1ccc(C(=O)O)cc1OC`, the log distribution coefficient (logD) is 1.61.
In the case of `O=C(O)c1cc(I)ccc1O` it was 2.63; in that of `O=C(O)c1ccc(O)c(Cl)c1`, 2.41.

The logD is lipophilicity at a set pH, counting ionised and neutral species.
